We go through 21 compounds from patent US6534522B2, “Subtype-selective NMDA receptor ligands and the use thereof” (Warner-Lambert Company, priority 1995, dated 2003).

Structures can show the parent of a compound that is named as a salt. Where two headings read alike, the source gives them in different places. A value given as a limit tells only on which side of the number the result lay.

Series [1] concerns the target NR1A/2A NMDA receptor (Rattus norvegicus, UniProt P35439+Q00959). The experiment in a line: Xenopus oocyte expression system, two-electrode voltage clamp, NR1A/2A. The series is classed as cell-based. The text has this:
(§1) Electrophysiological assays may be utilized to characterize the actions of potential subtype-selective ligands at NMDA receptors expressed in Xenopus oocytes. The ligand may be assayed at the different subunit combinations of cloned rat NMDA receptors corresponding to the four putative NMDA receptor subtypes (Moriyoshi et al., Nature (Lond.) 354:31-37 (1991); Monyer et al., Science (Washington, D.C.) 256:1217-1221 (1992); Kutsuwada et al., Nature (Lond.) 358:36-41 (1992); Sugihara et al., Biochem. Biophys. Res. Comm. 185:826-832 (1992)).
(§2) Using fixed saturating concentrations of agonists (glutamate 100 μM, glycine 1-10 μM depending on subunit combination), the inhibitory potency of a putative subtype-selective ligand may be assayed at the NMDA receptors assembled from NR1A/2A, NR1A/2B, NR1A/2C and NR1A/2D subunit combinations.
(§3) The Xenopus oocyte expression system. Mature female Xenopus laevis were anaesthetized (20-40 min) using 0.15% 3-aminobenzoic acid ethyl ester (MS-222) and 2-4 ovarian lobes were surgically removed. Oocytes at developmental stages IV-VI (Dumont, J. N., J. Morphol. 136:153-180 (1972)), were dissected from the ovary still surrounded by enveloping ovarian tissues. Follicle-enclosed oocytes were micro-injected with 1:1 mixtures of cRNA:NR1A+NR2A, 2B, 2C or 2D; injecting ˜2, 5, or 20 ng of RNA encoding each receptor subunit. NR1A encoding cRNA was injected alone at ˜20 ng. Oocytes were stored in Barth's medium containing (in mM): NaCl, 88; KCl, 1; CaCl2, 0.41; Ca(NO3)2, 0.33; MgSO4, 0.82; NaHCO3, 2.4; HEPES 5; pH 7.4, with 0.1 mg/mL gentamycin sulphate. While oocytes were still surrounded by enveloping ovarian tissues the Barth's medium was supplemented with 0.1% bovine serum. Oocytes were defolliculated 1-2 days following injections by treatment with collagenase (0.5 mg/mL Sigma Type I for 0.5-1 hr) (Miledi and Woodward, J. Physiol. (Lond.) 416:601-621 (1989)) and subsequently stored in serum-free medium.
(§4) Electrical recordings were made using a conventional two-electrode voltage clamp (Dagan TEV-200) over periods ranging between 3-21 days following injection. Oocytes were placed in a 0.1 mL recording chamber continuously perfused (5-15 mL min^−1) with frog Ringer's solution containing (in mM): NaCl, 115; KCl, 2; CaCl2, 1.8; HEPES, 5; pH 7.4. Drugs were applied by bath perfusion. When using the more rapid flow rates, half-times for mid-chamber solution changes were between 2-3 sec, however, exchange rates for drug solutions at the oocyte surface (i.e. beneath the vitelline envelope and among the tangles of microvilli) were probably considerably longer (Woodward et al., Mol. Pharmacol. 41:89-103 (1992)). Zero-Ca^2+/Ba^2+ Ringer had the composition (in mM): NaCl, 115; KCl, 2; BaCl2, 1.8; HEPES, 5; pH 7.4. Intraoocyte injections were made by pneumatic pressure-pulse ejection from micropipettes (Miledi and Parker, J. Physiol. (Lond.) 357:173-183 (1984)). Injection solutions of EGTA (40-400 mM) and BAPTA (50-500 mM) were made up in H2O, pH adjusted to 7.4 with KOH or HCl, and filtered to minimize plugging (Acrodisc-13, […]). Pressure was set between 200-400 kPa. The volume of injections was regulated by adjusting the time of pulses (0.1-1 sec) and was estimated by measuring the diameters of ejected droplets.
(§5) Concentration-inhibition curves were fit with equation 2.
(§6) I/Icontrol=1/(1+([antagonist]/10^−pIC50)^n) Eq. 2
(§7) in which Icontrol is the current evoked by agonists alone, pIC50=−log IC50, […] is the concentration of antagonist that produces half maximal inhibition, and n is the slope factor. For incomplete curves analysis by fitting was unreliable and IC50 values were calculated by simple regression over linear portions of the curves (Origin: Microcal Software).
(§8) Drugs were initially dissolved at concentrations of 10-100 mM in DMSO. Dilutions were then made to generate a series of DMSO stock solutions over the range 10 μM to 100 mM. Working solutions were made by 1000-3000 fold dilution of stocks into Ringer. […]

Series [2] deals with NR1A/2B NMDA receptor (Rattus norvegicus, UniProt P35439+Q00960). Kind of series: Xenopus oocyte expression system, two-electrode voltage clamp, NR1A/2B. The class given is cell-based.
Chain of NR1A/2B NMDA receptor (Q00960 27-1482, other chains not shown): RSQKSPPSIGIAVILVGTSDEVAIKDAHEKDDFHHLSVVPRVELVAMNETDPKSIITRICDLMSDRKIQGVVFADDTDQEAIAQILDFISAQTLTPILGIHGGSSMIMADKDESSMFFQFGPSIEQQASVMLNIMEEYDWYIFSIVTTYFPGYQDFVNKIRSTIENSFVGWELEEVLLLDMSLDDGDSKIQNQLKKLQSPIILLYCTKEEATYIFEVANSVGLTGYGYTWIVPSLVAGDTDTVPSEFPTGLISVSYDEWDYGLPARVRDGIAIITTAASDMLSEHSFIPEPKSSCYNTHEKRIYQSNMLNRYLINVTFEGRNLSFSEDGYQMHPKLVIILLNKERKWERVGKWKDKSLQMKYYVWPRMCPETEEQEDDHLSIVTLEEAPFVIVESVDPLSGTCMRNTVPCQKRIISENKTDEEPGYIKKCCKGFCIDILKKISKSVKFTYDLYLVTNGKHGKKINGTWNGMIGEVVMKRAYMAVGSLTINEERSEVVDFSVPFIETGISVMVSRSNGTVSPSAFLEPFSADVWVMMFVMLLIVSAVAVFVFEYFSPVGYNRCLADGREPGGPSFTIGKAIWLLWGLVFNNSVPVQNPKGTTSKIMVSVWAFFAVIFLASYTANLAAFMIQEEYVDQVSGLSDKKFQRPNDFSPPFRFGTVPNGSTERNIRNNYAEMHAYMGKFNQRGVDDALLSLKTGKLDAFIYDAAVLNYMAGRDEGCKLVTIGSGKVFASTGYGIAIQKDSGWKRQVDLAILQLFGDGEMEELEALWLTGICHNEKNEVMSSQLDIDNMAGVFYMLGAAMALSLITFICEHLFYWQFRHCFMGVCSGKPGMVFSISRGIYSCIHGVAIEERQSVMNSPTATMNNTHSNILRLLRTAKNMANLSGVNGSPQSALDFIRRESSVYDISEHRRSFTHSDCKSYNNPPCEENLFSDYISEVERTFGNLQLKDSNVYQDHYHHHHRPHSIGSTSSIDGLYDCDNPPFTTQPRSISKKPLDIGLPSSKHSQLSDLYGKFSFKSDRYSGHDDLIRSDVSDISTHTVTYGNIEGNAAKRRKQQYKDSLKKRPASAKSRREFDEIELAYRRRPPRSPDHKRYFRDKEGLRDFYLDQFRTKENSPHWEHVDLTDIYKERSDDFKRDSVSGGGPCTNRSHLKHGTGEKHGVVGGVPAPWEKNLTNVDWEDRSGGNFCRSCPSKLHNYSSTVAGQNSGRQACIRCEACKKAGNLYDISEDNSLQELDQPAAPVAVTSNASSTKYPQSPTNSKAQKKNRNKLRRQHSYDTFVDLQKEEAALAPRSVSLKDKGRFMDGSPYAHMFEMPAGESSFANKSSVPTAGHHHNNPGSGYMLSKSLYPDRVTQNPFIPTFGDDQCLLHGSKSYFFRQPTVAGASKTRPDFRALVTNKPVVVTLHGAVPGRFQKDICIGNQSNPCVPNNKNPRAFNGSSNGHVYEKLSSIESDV
Description: as §1, §2, §3, §4, §5, §6, §7, §8
(Two-electrode voltage clamp holds a large cell at a set potential and records current.)

Series [3] deals with NR1A/2C NMDA receptor (Rattus norvegicus, UniProt P35439+Q00961). Kind of series: Xenopus oocyte expression system, two-electrode voltage clamp, NR1A/2C. The class given is cell-based.
Chain of NR1A/2C NMDA receptor (Q00961 20-1237, other chains not shown): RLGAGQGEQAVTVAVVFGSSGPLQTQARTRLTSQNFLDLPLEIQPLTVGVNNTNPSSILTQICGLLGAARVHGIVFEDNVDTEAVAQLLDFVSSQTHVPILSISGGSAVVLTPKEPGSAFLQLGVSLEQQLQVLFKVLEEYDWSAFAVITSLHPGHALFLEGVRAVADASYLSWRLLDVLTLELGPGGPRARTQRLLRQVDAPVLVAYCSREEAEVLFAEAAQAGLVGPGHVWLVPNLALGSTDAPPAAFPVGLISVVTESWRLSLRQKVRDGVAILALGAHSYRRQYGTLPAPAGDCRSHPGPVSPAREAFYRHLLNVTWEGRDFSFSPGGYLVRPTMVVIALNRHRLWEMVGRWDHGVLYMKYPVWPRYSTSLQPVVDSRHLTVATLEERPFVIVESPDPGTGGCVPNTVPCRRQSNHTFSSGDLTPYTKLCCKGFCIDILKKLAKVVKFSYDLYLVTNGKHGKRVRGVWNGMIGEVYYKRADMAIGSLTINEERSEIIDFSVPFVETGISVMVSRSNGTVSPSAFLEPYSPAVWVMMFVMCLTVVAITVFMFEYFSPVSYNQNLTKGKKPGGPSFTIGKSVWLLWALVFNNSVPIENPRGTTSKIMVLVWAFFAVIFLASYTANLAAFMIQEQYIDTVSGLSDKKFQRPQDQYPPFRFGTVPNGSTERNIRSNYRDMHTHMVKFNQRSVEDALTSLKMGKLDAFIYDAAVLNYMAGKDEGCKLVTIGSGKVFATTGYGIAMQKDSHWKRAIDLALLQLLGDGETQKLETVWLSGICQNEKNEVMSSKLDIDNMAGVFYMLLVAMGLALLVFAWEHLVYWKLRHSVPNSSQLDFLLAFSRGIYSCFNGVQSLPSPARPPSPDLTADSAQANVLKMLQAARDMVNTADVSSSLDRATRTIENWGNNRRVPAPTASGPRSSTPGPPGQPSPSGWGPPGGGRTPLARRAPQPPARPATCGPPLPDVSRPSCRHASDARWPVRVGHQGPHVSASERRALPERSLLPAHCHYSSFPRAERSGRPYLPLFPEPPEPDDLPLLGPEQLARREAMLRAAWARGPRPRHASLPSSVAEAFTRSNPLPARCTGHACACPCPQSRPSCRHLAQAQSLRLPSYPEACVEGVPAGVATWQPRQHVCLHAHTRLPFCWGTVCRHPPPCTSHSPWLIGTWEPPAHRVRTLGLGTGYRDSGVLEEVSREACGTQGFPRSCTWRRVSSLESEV
Description: as §1, §2, §3, §4, §5, §6, §7, §8

Series [4] has as its system Maximal Electroshock-induced Seizures. The experiment in a line: Maximal electroshock-induced seizures. The series is classed as in vivo, mice. The note with it: Mus musculus, read-out: Mes. ED50. On the procedure: Maximal Electroshock-induced Seizures. Seizures were induced by application of current (50 mA, 60 pulses/sec, 0.8 sec pulse width, 1 sec duration, d.c.) through saline-coated corneal electrodes using a Ugo Basile ECT device (Model 7801). […] A tonic seizure was defined as a hindlimb extension in excess of 90 degrees from the plane of the body. Results were treated in a quantal manner.
A general note: In the maximal electroshock model the usual endpoint is tonic extension of the hind limbs.

Where [5] appears, read: cloned NR1A/2A subunits expressed in Xenopus oocytes, inhibition of agonist-evoked membrane current, read-out: 1A/2A IC50.
Setting [6] is: cloned NR1A/2B subunits expressed in Xenopus oocytes, inhibition of agonist-evoked membrane current, read-out: 1A/2B IC50.
[7] abbreviates: cloned NR1A/2C subunits expressed in Xenopus oocytes, inhibition of agonist-evoked membrane current, read-out: 1A/2C IC50.
Setting [8] is: mice, tonic hindlimb extensor response after corneal current 50 mA.

Chain of NR1A/2A NMDA receptor (Q00959 20-1464 limits assumed, other chains not shown): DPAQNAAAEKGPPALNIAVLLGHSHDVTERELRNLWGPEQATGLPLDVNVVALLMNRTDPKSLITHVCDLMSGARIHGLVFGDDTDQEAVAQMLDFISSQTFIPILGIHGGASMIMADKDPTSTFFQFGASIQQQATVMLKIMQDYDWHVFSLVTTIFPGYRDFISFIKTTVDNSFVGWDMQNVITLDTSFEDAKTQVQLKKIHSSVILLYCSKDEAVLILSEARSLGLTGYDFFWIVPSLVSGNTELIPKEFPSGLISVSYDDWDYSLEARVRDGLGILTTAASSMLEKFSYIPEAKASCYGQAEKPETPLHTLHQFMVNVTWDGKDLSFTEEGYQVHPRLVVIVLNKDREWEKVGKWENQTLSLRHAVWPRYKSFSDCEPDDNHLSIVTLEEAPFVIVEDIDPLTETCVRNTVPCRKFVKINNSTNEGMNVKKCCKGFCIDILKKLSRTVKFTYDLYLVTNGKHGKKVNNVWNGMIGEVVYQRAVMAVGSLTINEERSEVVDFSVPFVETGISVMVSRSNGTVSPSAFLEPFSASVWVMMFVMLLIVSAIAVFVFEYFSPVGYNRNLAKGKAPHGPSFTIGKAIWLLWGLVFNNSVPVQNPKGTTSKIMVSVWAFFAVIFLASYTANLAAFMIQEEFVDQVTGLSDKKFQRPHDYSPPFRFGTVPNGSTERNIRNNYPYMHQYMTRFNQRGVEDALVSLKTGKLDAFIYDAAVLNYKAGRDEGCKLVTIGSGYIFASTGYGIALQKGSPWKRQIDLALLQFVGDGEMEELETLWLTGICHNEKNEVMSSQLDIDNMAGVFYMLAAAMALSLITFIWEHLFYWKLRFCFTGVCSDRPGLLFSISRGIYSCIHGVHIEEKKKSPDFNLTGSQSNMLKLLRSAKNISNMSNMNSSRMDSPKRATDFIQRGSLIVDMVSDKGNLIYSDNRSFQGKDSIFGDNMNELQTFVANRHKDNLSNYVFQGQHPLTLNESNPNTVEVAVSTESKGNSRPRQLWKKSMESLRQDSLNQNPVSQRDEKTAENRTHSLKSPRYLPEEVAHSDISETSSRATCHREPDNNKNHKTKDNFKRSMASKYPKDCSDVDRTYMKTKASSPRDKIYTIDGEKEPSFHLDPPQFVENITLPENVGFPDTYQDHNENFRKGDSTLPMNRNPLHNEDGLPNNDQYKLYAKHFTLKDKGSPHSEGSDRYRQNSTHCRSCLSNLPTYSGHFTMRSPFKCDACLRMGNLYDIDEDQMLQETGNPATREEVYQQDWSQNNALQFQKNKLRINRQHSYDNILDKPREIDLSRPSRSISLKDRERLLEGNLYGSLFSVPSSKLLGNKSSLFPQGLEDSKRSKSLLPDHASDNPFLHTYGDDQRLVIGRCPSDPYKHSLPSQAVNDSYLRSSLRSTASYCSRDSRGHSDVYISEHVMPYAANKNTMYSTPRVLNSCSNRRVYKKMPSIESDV

Usually melting point stands for the temperature of the solid-liquid transition. With `C[C@@H](CO)CN1CCC(Cc2ccc(F)cc2)CC1` (as salt: hydrochloride) [Ex. 92, (R)-4-(4-Fluorobenzyl)-1-(3-hydroxy-2-methylpropyl) piperidine hydrochloride], the melting point lay in the range of 128 to 130 °C.
The same measure, in the same setting: the same measure for `CC(O)CCN1CCC(Cc2ccc(N)cc2)CC1` (stereo not drawn) (as salt: hydrochloride) [Ex. 105, 4-(4-aminobenzyl)-1-(3-hydroxy-butyl) piperidine hydrochloride]: 155 to 160 °C; for `O=c1[nH]c2ccc(OCCCN3CCc4ccccc4C3)cc2[nH]1` (as salt: hydrochloride) [Ex. 108, N-(3-(2-oxobenzimidazol-5-oxy)propyl)-1,2,3,4-tetrahydroisoquinoline]: 210 to 215 °C (dec.); for `Clc1ccc(CC2CCN(C3CCc4ccccc4C3)CC2)cc1` (stereo not drawn) (as salt: hydrochloride) [Example 98, 4-(4-Chlorobenzyl)-1-(tetralin-2-yl)piperidine hydrochloride]: 243 to 245 °C (dec.).
In the case of `c1ccc(OCCCN2CCc3c([nH]c4ccccc34)C2)cc1` [Ex. 25, 2-(3-Phenoxypropyl)-1,2,3,4-tetrahydro-9H-pyrido[3,4-b]indole], the melting point is 123 to 124 °C. For the same compound, the IC50 in series [1] (setting [5]) came out at 60 µM. Further, in series [2] (setting [6]), the IC50 worked out at 9 µM. The IC50 in series [3] (setting [7]) amounted to 175 µM.
`c1ccc(CCCN2CCc3c([nH]c4ccccc34)C2)cc1` [Ex. 26, 2-(3-Phenylpropyl)-1,2,3,4-tetrahydro-9H-pyrido[3,4-b]indole] had a melting point of 130 to 131 °C. Besides, in series [1] (setting [5]), the IC50 came out at 30 µM. The IC50 in series [2] (setting [6]) came out at 15 µM. Also, the IC50 in series [3] (setting [7]) was determined as 105 µM.
`OCCN1CCC(Cc2ccccc2)CC1` [Ex. 82, 4-Benzyl-1-(2-hydroxyethyl)piperidine] had a melting point of 62 to 64 °C. Also, the IC50 in series [1] (setting [5]) came out at 290 µM. For the same compound, the IC50 in series [2] (setting [6]) was determined as 3.3 µM. In addition, in series [3] (setting [7]), the IC50 was more than 300 µM.
In general, ED50 refers to the midpoint of the dose-response relation. Consider `OCCCN1CCC(Cc2ccccc2)CC1` [Ex. 83, 4-Benzyl-1-(3-hydroxypropyl)piperidine hydrobromide], for which the IC50 in series [1] (setting [5]) is 224 µM; in series [2] (setting [6]) it was 1.8 µM; in series [3] (setting [7]), more than 300 µM. For the same compound, the ED50 in series [4] came out at 3.5 mg/kg.
As for `CC(CCO)N1CCC(Cc2ccccc2)CC1` (stereo not drawn) [Ex. 84, 4-Benzyl-1-(3-hydroxy-1-methylpropyl)piperidine], the melting point is 74 to 76 °C. Further, the IC50 in series [1] (setting [5]) was determined as 270 µM. The IC50 in series [2] (setting [6]) amounted to 6 µM. Further, the IC50 in series [3] (setting [7]) is more than 300 µM.
The compound `OCC(O)CN1CCC(Cc2ccccc2)CC1` (stereo not drawn) [Ex. 85, 4-Benzyl-1-(2,3-dihydroxypropyl)piperidine] came in with a melting point of 92 to 94 °C. Further, the IC50 in series [1] (setting [5]) is more than 300 µM. For the same compound, the IC50 in series [2] (setting [6]) is 6 µM. Moreover, the IC50 in series [3] (setting [7]) was more than 300 µM.
`OCCCN1CCC(Cc2ccc(Cl)cc2)CC1` [Ex. 89, 4-(4-Chlorobenzyl)-1-(3-hydroxypropyl) piperidine hydrobromide]: the IC50 in series [1] (setting [5]) was 150 µM; in series [2] (setting [6]), 0.3 µM; in series [3] (setting [7]) it was more than 100 µM. Besides, in series [4] (setting [8]), the ED50 amounted to 5 mg/kg.
Consider `CC(O)CCN1CCC(Cc2ccc(F)cc2)CC1` (stereo not drawn) [Ex. 91, 4-(4-Fluorobenzyl)-1-(3-hydroxybutyl) piperidine hydrochloride], for which the values for the IC50 in series [1] (setting [5]), in series [2] (setting [6]) and in series [3] (setting [7]) were 230 µM, 2.5 µM and more than 300 µM, respectively. The ED50 in series [4] worked out at 6 mg/kg.
For `COc1ccc(CC2CCN(CCCO)CC2)cc1` [Ex. 93, 1-(3-Hydroxypropyl)-4-(4-methoxybenzyl) piperidine hydrobromide], the values for the IC50 in series [1] (setting [5]), in series [2] (setting [6]) and in series [3] (setting [7]) were more than 300 µM, 9 µM and more than 300 µM, respectively. Also, the median effective dose (ED50) in series [4] is 8 mg/kg.
`CC(O)CCN1CCC(Cc2ccc(Cl)cc2)CC1.Cl` (stereo not drawn) [Ex. 99, 4-(4-chlorobenzyl)-1-(3-hydroxybutyl) piperidine hydrochloride] yielded a melting point of 96 to 101 °C. The IC50 in series [1] (setting [5]) was more than 300 µM. For the same compound, in series [2] (setting [6]), the IC50 came out at 1.6 µM. For the same compound, the IC50 in series [3] (setting [7]) was more than 300 µM. The ED50 in series [4] (setting [8]) worked out at 6 mg/kg.
The compound `CC(O)CCN1CCC(Cc2ccc([N+](=O)[O-])cc2)CC1.Cl` (stereo not drawn) [Ex. 101, 4-(4-nitrobenzyl)-1-(3-hydroxybutyl) piperidine hydrochloride] showed a melting point of 105 to 107 °C. For the same compound, the IC50 in series [1] (setting [5]) turned out to be 260 µM. The IC50 in series [2] (setting [6]) was determined as 280 µM.
Regarding `CC(C)(O)CCN1CCC(Cc2ccccc2)CC1.Cl` [Ex. 102, 4-benzyl-1-(3-hydroxy-3-methylbutyl) piperidine hydrochloride], the melting point lay in the range of 136 to 138 °C. Moreover, in series [1], the IC50 was more than 300 µM. The IC50 in series [2] is 3.5 µM. In series [3], the IC50 was more than 300 µM.
With `Oc1ccc(CCNC2=NCC(Cc3ccccc3)CN2)cc1` (stereo not drawn) [Ex. 103, 2-[2-(4-Hydroyphenyl)ethylamino]-5-benzyl-1,3-diazacyclohexene], the melting point fell in the range of 153 to 155 °C. Besides, in series [1] (setting [5]), the IC50 was 3.5 µM. Moreover, the IC50 in series [2] (setting [6]) came out at 0.2 µM. Further, in series [3] (setting [7]), the IC50 amounted to 58 µM.
The matching figures for `Br.Fc1ccc(OCCNN2CCC(Cc3ccc(Cl)cc3)CC2)cc1` [Ex. 106, 4-(4-Chlorobenzyl)-1-(N-(2-(4-fluorophenoxy)ethyl)amino)piperidine hydrobromide]: 214 to 215 °C (dec.), 8.5 µM, 5 µM and 23 µM.
Compound `Cl.Oc1ccc(OCCN2CCC(C[C@]34C[C@H]5C[C@H](C[C@H](C5)C3)C4)CC2)cc1` [Ex. 107, 4-(1-Adamantylmethyl)-1-(2-(4-hydroxyphenoxy)ethyl)piperidine] displayed a melting point of 178 to 179 °C. Moreover, in series [1] (setting [5]), the IC50 was determined as 250 µM. Besides, the IC50 in series [2] (setting [6]) is 160 µM. For the same compound, in series [3] (setting [7]), the IC50 was found to be 75 µM.
`O=C(c1ccc(F)cc1)C1CCN(CCCO)CC1` [Example 77, 4-(p-fluorobenzoyl)-1-(3-hydroxypropyl)piperidine] showed a melting point of 106 to 108 °C.
Same read-out and setting: the same measure for `O=C(c1ccccc1O)C1CCN(CCCO)CC1` [Example 79, 4-(2-Hydroxybenzoyl)-1-(3-hydroxypropyl)piperidine]: 77 to 80 °C.
